Reference: patent publication US8629242B2, “Methods of inhibiting calcineurin with ApoE analogs” (Cognosci, Inc., priority 2007, dated 2014)

Experiments:
[1] = system: cuprizone-induced demyelination in corpus callosum; assay: Cuprizone-induced demyelination model; format: in vivo, C57BL/6J male mice
Method: FIG. 6. COG 112 promotes remyelination of the corpus callosum in a cuprizone model of demyelination. C57BL/6J male mice were fed with 0.2% cuprizone-containing diet for 5 weeks to induce complete demyelination in the corpus callosum. Starting from week 6, cuprizone was removed and the animals were treated with either vehicle or COG 112 (1 mg/kg) by i.p. injection three times a week for 4 weeks. Myelination in corpus callosum was evaluated on a scale from 0 to 3 after staining brain sections with Luxol Fast Blue (LFB). The data were collected from 4 animals of each group and 2 sections from each animal. A non-parametric Mann-Whitney test was used to compare differences between groups. Panels A and B (100×) are representative pictures of LFB-stained sections from vehicle- and COG 112-treated animals, respectively. Panels C and D (400×) are representative sections labeled with anti-GST-π-FITC antibody (marker for mature oligodendrocytes) from vehicle- and COG 112-treated animals, respectively.
In an EAE model, treatment with COG 112 reduced demyelination in the spinal cord (Example 1). Therefore, we tested the effect of COG peptides on remyelination in a cuprizone-induced demyelination model. C57BL/6J male mice were fed with 0.2% cuprizone-containing mouse chow for 5 weeks to cause demyelination. […]

[2] = system: NFAT translocation in BV2 cells; assay: LPS-induced NFAT translocation in BV2 cells; format: cell-based, murine; settings: 2 μM, LPS 10 ng/mL, 15 min
Text: FIG. 15. ApoE analog inhibits LPS-induced NFAT translocation. Murine microglial cell line, BV2 cells were stimulated with LPS in the presence or absence of COG 112. NFAT (green signal) and nuclear label (red signal). (A) Untreated cultures; (B) LPS-treated cultures; (C) LPS+COG 112-treated cultures; (D) NFAT translocation was quantified by the fluorescence intensity of green fluorescence in the nucleus defined by yellow area.
Calcineurin dephosphorylates the transcription factor NFAT, which leads to its activation and translocation to the nucleus. Activation of calcineurin and subsequent activation of NFAT is induced by inflammatory stimuli. To further examine the effect of ApoE analogs on calcineurin signaling, murine microglial cell line, BV2 cells were stimulated with LPS (10 ng/mL) in the absence and presence of COG 112 (2 μM). After incubation for 15 min at 37° C., the cells were washed and fixed with 4% formaldehyde. After staining with 1/100 anti-NFAT antibody coupled with Alexaflour and then counterstained with hoescht nuclear dye, NFAT translocation was quantified by the fluorescence intensity of Alexaflour in the nucleus.

enriched OPCs = assay: OPC proliferation (BrdU) in enriched OPC culture; format: cell-based, rat; settings: 1 μM, three days in proliferation medium
Method: FIG. 10. ApoE analog promotes proliferation of OPCs in culture. Cultures enriched in OPCs were grown in proliferation media containing BrdU in the presence and absence of 1 μM COG 112 or a peptide control. Cells were subsequently labeled with Hoescht stain to detect nuclei, a BrdU antibody to detect proliferating cells, and an A2B5 antibody to identify OPCs (left panel). The number of cells per field were counted for each condition (right panel). In graph, the Hoescht bars correspond to the total number of A2B5^+/Hoescht^+ cells, while the BrdU bars correspond to […] cells.
Enriched OPCs were collected by shaking a primary culture of P2 rat pup brain. Proliferation medium containing COG 112 (1 μM), BrdU (20 μM), 10 ng/mL FGF and PDGF was added to the enriched OPC cultures. After three days in culture, cells were stained with Hoescht stain to show nuclei, a BrdU antibody to identify proliferating cells, and an A2B5 antibody to identify OPCs (FIG. 10). Antennapedia, the prefix peptide of COG 112, was used as a control.

peritoneal macrophages = assay: In vitro LPS+IFN-γ challenge of macrophages from COG 133-treated EAE mice; format: cell-based; settings: macrophages collected dpi 35 from treated mice, vs saline-treated mice, p<0.001
Method: FIG. 4. In vivo exposure to COG 133 suppressed in vitro production of inflammatory effectors by peritoneal macrophages. TNF-α (A) and IL-6 (B) were measured by ELISA, and nitrite in culture medium was measured by a Sievers NO Analyzer (C). Statistical analysis was performed by two-tailed student's t test and significance was shown as ** (p<0.01) and *** (p<0.001).
To examine the effect of COG 133 (SEQ ID NO: 1) treatment on activation of macrophages in EAE mice, macrophages were collected from a subset of saline and COG 133-treated mice on dpi 35 and then challenged in vitro with the immune stimulators lipopolysaccharide and interferon-γ (LPS+IFN-γ). Nitrite in culture medium was measured by a Sievers NO Analyzer and TNF-α and IL-6 were measured by ELISA.

For “Ac-RQIKIWFQNRRMKWKKCLRVRLASHLRKLRKRLL-NH2 [COG 112]”, the “LFB staining of myelin within corpus callosum” value ([1]; 1 mg/kg i.p. three times a week for 4 weeks after 5 weeks cuprizone) was “significantly increased”, the “GST-π+ cells (mature oligodendrocytes) within the corpus callosum” value ([1]; 1 mg/kg i.p. three times a week for 4 weeks, vs vehicle) was “Significantly more” and the “NFAT translocation to the nucleus” value [2] was “prevented NFAT translocation”. The “number of A2B5+/BrdU+ cells” value (enriched OPCs) was “significantly increased”.

`CC(=O)N[C@@H](CC(C)C)C(=O)N[C@@H](CCCNC(=N)N)C(=O)N[C@H](C(=O)N[C@@H](CCCNC(=N)N)C(=O)N[C@@H](CC(C)C)C(=O)N[C@@H](C)C(=O)N[C@@H](CO)C(=O)N[C@@H](Cc1c[nH]cn1)C(=O)N[C@@H](CC(C)C)C(=O)N[C@@H](CCCNC(=N)N)C(=O)N[C@@H](CCCCN)C(=O)N[C@@H](CC(C)C)C(=O)N[C@@H](CCCNC(=N)N)C(=O)N[C@@H](CCCCN)C(=O)N[C@@H](CCCNC(=N)N)C(=O)N[C@@H](CC(C)C)C(=O)N[C@@H](CC(C)C)C(N)=O)C(C)C` [COG 133] was tested, and the “release of IL-6” value (peritoneal macrophages) was “significantly lower response”, the “release of NO” value (peritoneal macrophages) was “significantly lower levels of NO” and the “release of TNF-α” value (peritoneal macrophages) was “significantly lower response”.
